Entries after “also recorded” stand apart in the source; their conditions may differ.
Experiments:
βARR2 = target: T1, βARR2 (Rattus norvegicus, UniProt P29067); assay: ITC binding to βARR2; details: for stoichiometry N, βARR2 / Kd: ITC; for Kd: 25 °C, one-site model; for β-arrestin isoform preference: from ITC
T1 construct: βARR1 or βARR2 construct, with their C terminus truncated (at amino acid 393 or 394, respectively); GST (pGEX4T1) (N, cleaved yes); made in house; host or cells: E. coli BL21 (DE3) pLysS
Experimental: The expression and purification of β-arrestins have been described previously[44],[62]–[64]. In brief, E. coli BL21 (DE3) pLysS cells (New England Biolabs: C2527I) carrying pGEX4T1-Rattus norvegicus βARR1 or βARR2 construct, with their C terminus truncated (at amino acid 393 or 394, respectively), were cultured in Terrific Broth (Teknova) medium at 37 °C. After OD600 reached 0.6–0.8, the cells were induced with 0.1 mM isopropyl-β-D-thiogalactopyranoside (IPTG) at 18 °C overnight. Bacteria were collected by centrifugation (4,000 rpm), and cell pellets were resuspended in lysis buffer (20 mM HEPES, pH 8, 150 mM NaCl, 10% glycerol, 1 mM EDTA, 0.2 mM dithiothreitol (DTT), 1 mM phenylmethylsulfonyl fluoride, and 1 mM benzamidine) at 4 °C for 1 h. Cell suspensions were sonicated, centrifuged (14,000 rpm, 30 min, 4 °C), and the supernatant was loaded onto pre-equilibrated glutathione–agarose resin (GoldBio). After 3 h of binding at 4 °C, the beads were washed, and thrombin was added for overnight cleavage. The proteins were further purified by anion exchange chromatography followed by size-exclusion chromatography using a Superdex 200 Increase 10/300 GL column on an ÄKTA FPLC system (GE Healthcare). Eluted fractions were analysed by SDS–PAGE, pooled, concentrated using 30 kDa MWCO Amicon Ultra-15 Centrifugal Filter devices, flash-frozen in liquid nitrogen, and stored in aliquots at −80 °C. The same rat βARR1 constructs with mutations (L129A, L129S, L129G, P131A, P133A, E134A, D135A, K138A, C140A, Y249A, C251A, E283A, K284A and R285A) were generated and purified in a similar manner. Recombinant Gα subunits (Gαs, Gαq and Gαi) were purified as GST fusion proteins using glutathione–agarose affinity chromatography as previously described. The heterotrimeric Gs protein complex, composed of Gαs, Gβ1 and Gγ2 subunits, was expressed in Sf9 cells using the baculovirus expression system and purified as previously described. M2R expression, purification and reconstitution into high-density lipoprotein (HDL) particles were performed as previously described. ERK2, SRC, p38α and JNK3 kinases were expressed and purified using previously established protocols[6],[16]. Protein concentrations for each protein were determined by ultraviolet absorption at 280 nm and extinction coefficients estimated using the ExPASy ProtParam tool[67].
ITC measurements were performed on a MicroCal iTC200 system at 25 °C. Prior to ITC experiments, all proteins (βARR1, βARR2 or βARR1 mutants) were extensively dialysed against 20 mM HEPES (pH 7.4), 100 mM NaCl, and 3 μM TCEP. Protein concentrations were determined by spectrophotometry at 280 nm, using extinction coefficients calculated from each protein sequence via the ProtParam program. The dialysis buffer was used to dilute DMSO stock solutions of β-arrestin small-molecule modulators to their final concentrations for measurements. For each ITC experiment, β-arrestin modulators (Cmpd-5 at 350 μM, Cmpd-46 at 450 μM, and Cmpd-64 at 450 μM) were loaded into the syringe and titrated into the calorimetric cell containing βARR1, βARR1 mutants or βARR2 (at about 30–40 μM, depending on the protein and experiment). Additional ITC experiments were also performed using purified GST-fused Gα subunits (Gαs, Gαq and Gαi; about 30 μM) and Gαiβγ heterotrimer (about 30 μM). Gα subunits were prepared in the same buffer (20 mM HEPES, pH 7.4, 100 mM NaCl, 3 μM TCEP), whereas the Gαiβγ heterotrimer was maintained in buffer supplemented with 0.05% DDM and 10 μM GDP, with matched DMSO carrier conditions. Modulators (300 μM) or corresponding DMSO controls were loaded and titrated as described above. The reference cell was filled with distilled water. In all experiments, the titration sequence typically consisted of an initial 0.4 μl injection, followed by 19 injections of 2 μl each, with a 180-s interval between injections to allow thermal power to return to baseline. […]

[1] = system: β-arrestin-dependent ERK1/2 activation downstream of β2AR; assay: Carvedilol-stimulated ERK1/2 phosphorylation in β2AR HEK293 cells; type: cell-based; details: 30 μM; carvedilol 10 μM, 5 min
Experimental: To evaluate the effect of small-molecule modulators on β-arrestin-dependent ERK1/2 signalling, HEK293 cells stably expressing β2AR were serum-starved for 6 h (refs. [34],[75]), then pretreated with β-arrestin modulators (30 μM) or vehicle for 20 min at 37 °C. Cells were subsequently stimulated with carvedilol (10 μM, 5 min), a β-arrestin-biased agonist known to promote ERK1/2 phosphorylation via β-arrestin scaffolding of RAF–MEK–ERK signalling components. Cells were lysed, sonicated (15 s), and centrifuged at 14,000g for 15 min at 4 °C. Equal amounts of total protein were resolved by SDS–PAGE on 4–20% Tris-Glycine gels (Thermo Fisher Scientific), transferred to nitrocellulose or PVDF membranes, and immunoblotted with anti–phospho-ERK1/2 (1:2,000; Cell Signaling) and total ERK1/2 (1:10,000; Millipore Sigma). HRP-conjugated secondary antibodies were used for detection. Protein bands were visualized using Pierce SuperSignal West Pico ECL substrate (Thermo Fisher Scientific), imaged on a ChemiDoc XRS system (Bio-Rad) and quantified by densitometry using ImageLab (Bio-Rad). Data were analysed using GraphPad Prism.

T1 sequence (P29067 1-394): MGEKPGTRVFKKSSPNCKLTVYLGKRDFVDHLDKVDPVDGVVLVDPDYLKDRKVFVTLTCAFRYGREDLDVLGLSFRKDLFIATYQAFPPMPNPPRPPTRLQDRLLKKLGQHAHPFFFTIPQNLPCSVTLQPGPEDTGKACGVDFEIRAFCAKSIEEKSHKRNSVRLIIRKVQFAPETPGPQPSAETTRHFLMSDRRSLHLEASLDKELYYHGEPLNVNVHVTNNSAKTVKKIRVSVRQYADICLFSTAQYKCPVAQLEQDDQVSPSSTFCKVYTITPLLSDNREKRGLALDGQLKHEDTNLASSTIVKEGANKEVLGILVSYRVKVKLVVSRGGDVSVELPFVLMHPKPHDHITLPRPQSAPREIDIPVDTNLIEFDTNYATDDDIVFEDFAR

Structure (SMILES) | stoichiometry N, βARR2 (βARR2) | Kd (βARR2) [nM] | β-arrestin isoform preference (βARR2) | effect on β-arrestin-dependent ERK1/2 activation [1]
C=C1C(=O)[C@]23[C@H](O)[C@H]1CC[C@H]2[C@@]12CO[C@]3(O)[C@@H](O)[C@@H]1C(C)(C)CC[C@@H]2O [Cmpd-5, (1S,4aR,5S,6S,6aR,9S,11aS,11bS,14R)-1,5,6,14-tetrahydroxy−4,4-dimethyl-8-methylenedecahydro-1H-6,11b-(epoxymethano)-6a,9-methanocyclohepta[a]naphthalen-7(8H)-one] | 0.84 | 563 ± 45 | bound both isoforms comparably; also recorded: bound each isoform similarly | significantly attenuated; also recorded: attenuate
C=C1C(=O)C2=CC1CCC(=O)C1(C)CCC(OCC)C(C)(C)C1CC2O (centres unmarked) [Cmpd-46, (Z)-3-ethoxy-6-hydroxy-4,4,13a-trimethyl-9-methylene-1,2,3,4,4a,5,6,9,10,11,12,13a-dodecahydro-7,10-(metheno)benzo[11]annulene-8,13-dione] | 0.94 | 753 ± 54 | slight βarr2 preference; also recorded: modest βARR2 preference | significantly attenuated; also recorded: attenuate
C=C1C(=O)OC2CC3(C)OC3CCC(C)=CC(OC(C)=O)C12 (centres unmarked) [Cmpd-64, (Z)-4,10a-dimethyl-7-methylene-8-oxo-1a,2,3,6,6a,7,8,9a,10,10a decahydrooxireno[2’,3’:8,9]cyclodeca[1,2-b]furan-6-yl acetate] | 0.91 | 207 ± 54 | – | significantly attenuated; also recorded: attenuate

— paper PMC13489962, “Small-molecule modulation of β-arrestins” (Nature, 2026)
